What all share (assay type): cell-based
Assay [1] concerns Saccharomyces servazzii. Briefly: In vitro susceptibility of contaminant yeast by minimal inhibition concentrations. To be noted: MicroGARD 200 at 1% (w/v); allyl isothiocyanate 0.01%; FP 1000-D1 at 1% (w/v). As to the method: The dominating yeast in the control batch was traced back to Pichia spp., likely to be the added DCS 1175 strain. At what time point the contaminant yeast occurred is not known. The contaminant yeast. Saccharomyces servazzii, was tested in vitro for susceptibility towards MicroGARD® 200, allyl isothiocyanate, and the FP1000 variant FP 1000-D1 by determination of minimal inhibition concentrations (data not shown) The results confirmed a tolerance of the yeast against MicroGARD® 200 at 1% (w/v) and susceptibility towards allyl isothiocyanate 0.01% and FP 1000-D1 at 1% (w/v), respectively. Consequently, although eventually present in all batches, Saccharomyces servazzii could have been suppressed in the preserved batches, but was able to outgrow in batch D. The high acetic acid concentration in the unpreserved batch A and the competing yeast flora could have caused suppression of the contaminant in those samples.

Assay [2] concerns Candida tropicalis DCS 604. Briefly: Minimal Inhibition Concentration Assay (MIC), 96 well liquid based. To be noted: DCS604, in blend FP1000S, read-out: actual presence of the individual compound in the blend at MIC level. An excerpt:
(§1) The target strains used for assessment of antimicrobial activity are isolates of different origin e.g. food spoilage isolates, spoilage organisms provided by a customer, national strain collections (e.g. DSMZ, ATCC) collected in the in house Danisco Culture Collection (DCS) (Danisco, Brabrand, Denmark), maintained at −86′C in suitable broth containing glycerol 50% (v/v). The strains were chosen to represent Gram negative and fungal strains. All species used were aerobic. Before each experiment, stock cultures were propagated through two consecutive growth cycles in suitable media and temperature. The overnight cultures are diluted in saline solution to obtain working cultures.
(§2) Yeast and mould strains were incubated at 25° C., and bacterial isolates were grown at 30° C. under aerobic conditions depending on the preferred conditions for the particular strain (Method no AP-002).
(§3) The Minimal Inhibition Concentration Assay (MIC) is a 96 well liquid based assay developed for an automated assessment system and performed essentially as described in (Method no AP-003). Indicator strains (table 2) are tested for inhibition of growth by the putative anti-microbial substances and combinations thereof, using a wide concentration range (depending on the compound), in this case by performing a ⅔-dilution series of each sample at pH 6.0 (±0.2)). From a 10 fold diluted overnight culture 5 μl of each strain was inoculated in one well corresponding to an approximate inoculation density of 10^3-10^4 cells/well. Media used were YM-broth for yeast and moulds and CASO-broth for bacterial isolates. Strains were incubated at 24° C. or 30° C. for 24 to 48 hours depending on the strain. The increase in optical density (O.D.) after incubation is compared to a growth control to estimate whether the substance has a bacteriostatic effect and to determine the MIC. MIC is defined as the lowest concentration of the antimicrobial that will inhibit measurable growth. A bacteriostatic effect is defined as the OD620 being less than or equal to 20% of the growth control after incubation.
(§4) To obtain more accurate estimates of the values, an Excel macro was used to process the raw data. The macro scans the raw data and finds the two concentrations that lie on either side of the O.D. 20% threshold value. It then pinpoints the actual concentration where the O.D. crosses the threshold, using linear correlation. All data are presented as the mean values of duplicates for each microorganism.
(§5) The MIC assays were run on a fully automated assessment system consisting of a 9-hotel Cytohotel (Thermo), a Biomek FxP pipetting robot (Beckman Coulter), an ORCA robotic arm on a 3 meter rails (Beckman Coulter), 2 Synergy HT spectrophotometers (Biotek), a Cytomat 6001 incubator (Thermo) and a Cytomat 2C incubator (Thermo).

In assay [3] the test system is Salmonella enteritidis DCS 1152. Described as above. The conditions noted are these: Salmonella enterica, in blend FP1000S, read-out: actual presence of the individual compound in the blend at MIC level.
Description: as §1, §2, §3, §4, §5

In assay [4] the test system is Saccharomyces cerevisiae DCS 599. Described as above. To be noted: DCS599, in blend FP1000S, read-out: actual presence of the individual compound in the blend at MIC level.
Description: as §1, §2, §3, §4, §5

For assay [5], the system named is Debaryomyces hansenii DCS 605. Described as above. The conditions noted are these: DCS605, in blend FP1000S, read-out: actual presence of the individual compound in the blend at MIC level.
Description: as §1, §2, §3, §4, §5

Assay [6] deals with Candida parapsilosis DCS 1090. The description is as above. The conditions noted are these: Lodderomyces parapsilosis, DCS1090; in blend FP1000S; read-out: actual presence of the individual compound in the blend at MIC level.
Description: as §1, §2, §3, §4, §5

Assay [7] deals with Escherichia coli DCS 495. The description is as above. The conditions noted are these: DCS495, read-out: actual presence of the individual compound in the blend at MIC level.
Description: as §1, §2, §3, §4, §5

The test system of assay [8] is Pichia anomala DCS 603. The assay is described as above. To be noted: Hansenula anomala, DCS603; in blend FP1000S; read-out: actual presence of the individual compound in the blend at MIC level.
Description: as §1, §2, §3, §4, §5

Assay [9] relates to Rhodotorula glutinis DCS 606. Described as above. The conditions noted are these: DCS606, in blend FP1000S, read-out: actual presence of the individual compound in the blend at MIC level.
Description: as §1, §2, §3, §4, §5

For assay [10], the system named is Pseudomonas fluorescens DCS 428. The assay is described as above. The conditions noted are these: DCS428, in blend FP1000S, read-out: actual presence of the individual compound in the blend at MIC level.
Description: as §1, §2, §3, §4, §5

For assay [11], the system named is Aspergillus parasiticus DCS 709. The description is as above. To be noted: DCS709, in blend FP1000S, read-out: actual presence of the individual compound in the blend at MIC level.
Description: as §1
(§6) Mould spore inoculums were prepared as follows: approx. 2 ml of sterile demineralised water was used to wash the spores off an out-grown mould (minimum 5 day old plate). This suspension is transferred to a sterile container.
as §2
as §3, with “MIC is defined as the lowest concentration of the antimicrobial that will inhibit measurable growth. A bacteriostatic effect is defined as the OD620 being less than or equal to 20% of the growth control after incubation.” left out

Assay [12] relates to Aspergillus niger DCS 1115. The assay is described as above. The conditions noted are these: DCS1115, in blend FP1000S, read-out: actual presence of the individual compound in the blend at MIC level.
Description: as §1, §6, §2
as §3, with “MIC is defined as the lowest concentration of the antimicrobial that will inhibit measurable growth. A bacteriostatic effect is defined as the OD620 being less than or equal to 20% of the growth control after incubation.” left out

Assay [13] relates to Aspergillus versicolor DCS 1069. Described as above. The conditions noted are these: DCS1069, in blend FP1000S, read-out: actual presence of the individual compound in the blend at MIC level.
Description: as §1, §6, §2
as §3, with “MIC is defined as the lowest concentration of the antimicrobial that will inhibit measurable growth. A bacteriostatic effect is defined as the OD620 being less than or equal to 20% of the growth control after incubation.” left out

Each structure is given as a SMILES string.

One compound from patent publication US20130287918A1, “MICROBICIDAL COMPOSITION” (DUPONT NUTRITION DIOSCIENCES APS, priority 2010, published 2013) can be followed below.

For `C=CCN=C=S` [AITC, allyl isothiocyanate], the “in vitro susceptibility of contaminant yeast (data not shown)” value in assay [1] is on record as “susceptibility”. The MIC (in general, the lowest concentration found to suppress growth) in [2] was 235 µg/mL; in assay [3] it was greater than 700 µg/mL; in assay [4], 196 µg/mL; in assay [5] it was 213 µg/mL; in assay [6] it was 67 µg/mL; in assay [7], greater than 700 µg/mL. The MIC in assay [8] was 380 µg/mL; in assay [9] it was 200 µg/mL; in assay [10], 412 µg/mL; in assay [11], 38 µg/mL; in assay [12], 106 µg/mL; in assay [13], 143 µg/mL.
